Test results taken from patent US11925166B2, “Cacao cell suspension protocol” (Mars, Incorporated, priority 2019, dated 2024).

Test system: fungi and bacteria on leaf explants
Test: Leaf disinfection of cacao leaf explants (hypochlorite under vacuum)
Design: species or system Theobroma cacao; cacao leaf disinfection: dose or concentration left out as unconfirmed
Method: The leaves were cleaned with soap and rinsed with distilled sterile water for three times. Afterwards, the leaves were cut in pieces in sizes of 2 cm^2, disinfected by immersion in alcohol 70% for five minutes, and rinsed three times with ultrapure sterile water. Then, the leaf explants were immersed in 1% calcium hypochlorite or 20% sodium hypochlorite for 50-60 minutes in vacuum condition (70 k-pascal) and rinsed 3-5 times with ultrapure sterile water.

Compound: [Ca+2].[O-]Cl.[O-]Cl [calcium hypochlorite]
- leaf death after disinfection (high concentration of calcium hypochlorite): high percentage of leaf death
- cacao leaf disinfection (low concentration of calcium hypochlorite for 40 minutes, with vacuum): best treatment for cacao leaf disinfection
